{"source": "patent US9532990B2", "about": "(Zhejiang DTRM Biopharma Co. Ltd., priority 2014, dated 2017)", "key": {"[1]": {"assay": "Toxicity and toxicokinetic studies, 28-day rat and dog", "conditions": "28-day rat and dog studies", "excerpt": "Toxicity and toxicokinetic (TK) studies of the compounds can be performed by well known methods."}, "[2]": {"assay": "Pharmacokinetic study in male SD rats", "assay_type": "in vivo", "conditions": "rat, plasma", "experimental": "A pharmacokinetic study in male SD rats: Male SD rats for pharmacokinetic study within 24 hours were divided into two groups: intravenous administration and oral administration. Each group has three animals. For group of intravenous administration, blood samples were collected at pre-dose, 0.0833, 0.167, 0.5, 1, 2, 4, 8, 24 h post-dose; for group of oral administration, blood samples were collected at pre-dose, 0.167, 0.5, 1, 2, 4, 8, 24 h post-dose. After blood collection, HPLC-MS/MS was applied to determine plasma concentrations of the compound."}, "[3]": {"assay": "Pharmacokinetic study in Beagle dogs", "assay_type": "in vivo", "conditions": "dog, plasma", "experimental": "[…] Each group has three animals. For group of intravenous administration, blood samples were collected at pre-dose, 0.033, 0.083, 0.25, 0.5, 1, 3, 6, 9, 24 h post-dose; for group of oral administration, blood samples were collected at pre-dose, 0.083, 0.25, 0.5, 1, 3, 6, 9, 24 h post-dose. After blood collection, HPLC-MS/MS was applied to determine plasma concentrations of the compound."}, "TMD-8 cells": {"test_system": "TMD-8 cells", "assay": "Inhibition assay of tumor cell activity (cell viability)", "assay_type": "cell-based, human", "conditions": "single agent, 48 hours, AVG", "experimental": "Inhibition Assay of Tumor Cell Activity:\nTumor cells (TMD-8, DoHH2 and WSU-DLCL2) were transferred and attached to 96-well plates. After one night, blank buffer and selected concentrations (0.01 nM-100 μM) of the test compound solution were added. After 48 hours incubation, CellTiter-Go was added to lyse the cells. Recording luminescent signal and calculate the percent inhibition of cell viability.\nTMD-8 is a sensitive human diffuse large B-cell lymphoma cell line, and DoHH2 is a more difficult to treat human follicular lymphoma cell line, while WSU-DLCL2 is a multi-drug resistant (MDR) human non-Hodgkin's lymphoma cell line. Drug combination therapies provided better efficacies in all three tumor models than single targeted agent alone."}, "[4]": {"assay": "Toxicokinetic (TK) study in dogs, 28-day", "assay_type": "in vivo, dog", "conditions": "for Cmax / Tmax / AUC(0-t): dog, in vivo; for AUC(0-t): read-out: AUC0-24 h"}, "TMD-8 lymphoma xenograft": {"test_system": "TMD-8 lymphoma xenograft", "assay": "TMD-8 lymphoma xenograft SCID mouse model", "assay_type": "in vivo", "conditions": "BID; for Antitumor effect: Oral", "experimental": "Compounds (Compounds 45 and others) alone and its combinations were evaluated against tumor growth in xenograft models in female CB-17 SCID mice. The TMD-8, DoHH2, WSU-DLCL2 tumor cells were maintained in vitro as a suspension culture in RPMI-1640 medium supplemented with 10% heat inactivated fetal calf serum at 37° C. in an atmosphere of 5% CO2 in air. The tumor cells were routinely subcultured twice weekly. The cells growing in an exponential growth phase were harvested and counted for tumor inoculation. Each mouse was inoculated subcutaneously at the right flank with the tumor cells (10×10^6) in 0.2 ml of PBS with Matrigel (1:1) for tumor development. The treatments were started after the average tumor size reached approximately 100-200 mm^3. Each group consisted of 6-10 tumor-bearing mice. The testing article (vehicle, compound or combination) was orally administrated to the mice according to the predetermined doses for 14-days or 21-days. Animal body weight and tumor volume were measured every 2-or 3-days throughout the treatment."}, "[5]": {"conditions": "IV, 2 mg/kg, mean, read-out: Vdss"}, "[6]": {"conditions": "female, 15 mg/kg/day, Study Day 1, Female"}, "[7]": {"conditions": "female, 15 mg/kg/day, Study Day 28, Female"}, "[8]": {"conditions": "female, 45 mg/kg/day, Study Day 1, Female"}, "[9]": {"conditions": "female, 45 mg/kg/day, Study Day 28, Female"}, "[10]": {"conditions": "female, 105 mg/kg/day, Study Day 28, Female"}, "[11]": {"conditions": "female, 150 mg/kg/day, Study Day 1, Female"}, "[12]": {"conditions": "male, 15 mg/kg/day, Study Day 1, Male"}, "[13]": {"conditions": "male, 15 mg/kg/day, Study Day 28, Male"}, "[14]": {"conditions": "male, 45 mg/kg/day, Study Day 1, Male"}, "[15]": {"conditions": "male, 45 mg/kg/day, Study Day 28, Male"}, "[16]": {"conditions": "male, 105 mg/kg/day, Study Day 28, Male"}, "[17]": {"conditions": "male, 150 mg/kg/day, Study Day 1, Male"}}, "data": [{"compound": "C=CC(=O)N1CC[C@@H](n2nc(-c3ccc(Oc4c(F)c(F)cc(F)c4F)cc3F)c3c(N)ncnc32)C1", "note": "[Compound 45, 1-((R)-3-(4-amino-3-(2-fluoro-4-(2,3,5,6-tetrafluorophenoxy)phenyl)-1H-pyrazolo[3,4-d]pyrimidin-1-yl)pyrrolidin-1-yl)prop-2-en-1-one]", "values": [{"measurement": "drug exposure, Day 1 versus Day 28", "setting": "[1]", "result": "no significant difference in drug exposure between Day 1 and Day 28"}, {"measurement": "drug exposure, male versus female", "setting": "[1]", "result": "no significant difference in drug exposure between male and female"}, {"measurement": "AUC(0-inf)", "setting": "[2]; IV, 2 mg/kg, mean", "result": 1740, "unit": "ng·h/mL"}, {"measurement": "AUC(0-t)", "setting": "[2]; IV, 2 mg/kg, mean", "result": 1740, "unit": "ng·h/mL"}, {"measurement": "C0", "setting": "[2]; IV, 2 mg/kg, mean", "result": 1390, "unit": "ng/mL"}, {"measurement": "clearance", "setting": "[2]; IV, 2 mg/kg, mean", "result": 20.2, "unit": "mL/min/kg"}, {"measurement": "half-life", "setting": "[2]; IV, 2 mg/kg, mean", "result": 0.787, "unit": "h"}, {"measurement": "Vd", "setting": "[2]; [5]", "result": 1.61, "unit": "L/kg"}, {"measurement": "bioavailability", "setting": "[2]; PO, 10 mg/kg", "result": 37.1, "unit": "%"}, {"measurement": "AUC(0-inf)", "setting": "[2]; PO, 10 mg/kg, mean", "result": 3260, "unit": "ng·h/mL"}, {"measurement": "AUC(0-t)", "setting": "[2]; PO, 10 mg/kg, mean", "result": 3230, "unit": "ng·h/mL"}, {"measurement": "Cmax", "setting": "[2]; PO, 10 mg/kg, mean", "result": 641, "unit": "ng/mL"}, {"measurement": "Tmax", "setting": "[2]; PO, 10 mg/kg, mean", "result": 1.33, "unit": "h"}, {"measurement": "half-life", "setting": "[2]; PO, 10 mg/kg, mean", "result": 1.71, "unit": "h"}, {"measurement": "AUC(0-inf)", "setting": "[3]; IV, 2 mg/kg, mean", "result": 987, "unit": "ng·h/mL"}, {"measurement": "AUC(0-t)", "setting": "[3]; IV, 2 mg/kg, mean", "result": 977, "unit": "ng·h/mL"}, {"measurement": "C0", "setting": "[3]; IV, 2 mg/kg, mean", "result": 663, "unit": "ng/mL"}, {"measurement": "clearance", "setting": "[3]; IV, 2 mg/kg, mean", "result": 34.6, "unit": "mL/min/kg"}, {"measurement": "half-life", "setting": "[3]; IV, 2 mg/kg, mean", "result": 2.27, "unit": "h"}, {"measurement": "Vd", "setting": "[3]; [5]", "result": 4.24, "unit": "L/kg"}, {"measurement": "bioavailability", "setting": "[3]; PO, 5 mg/kg", "result": 26.2, "unit": "%"}, {"measurement": "AUC(0-inf)", "setting": "[3]; PO, 5 mg/kg, mean", "result": 574, "unit": "ng·h/mL"}, {"measurement": "AUC(0-t)", "setting": "[3]; PO, 5 mg/kg, mean", "result": 650, "unit": "ng·h/mL"}, {"measurement": "Cmax", "setting": "[3]; PO, 5 mg/kg, mean", "result": 189, "unit": "ng/mL"}, {"measurement": "Tmax", "setting": "[3]; PO, 5 mg/kg, mean", "result": 1.17, "unit": "h"}, {"measurement": "half-life", "setting": "[3]; PO, 5 mg/kg, mean", "result": 2.92, "unit": "h"}, {"measurement": "Inh % TMD-8 cell viability", "setting": "TMD-8 cells; 0.01 μM", "result": 51.66, "unit": "%"}, {"measurement": "Inh % TMD-8 cell viability", "setting": "TMD-8 cells; 0.1 μM", "result": 52.40, "unit": "%"}, {"measurement": "Inh % TMD-8 cell viability", "setting": "TMD-8 cells; 1 uM", "result": 55.05, "unit": "%"}, {"measurement": "AUC compared with ibrutinib", "setting": "[4]; TK data", "result": "significantly higher than that of ibrutinib"}, {"measurement": "Cmax", "setting": "[4]; [6]", "result": "685 ± 212", "unit": "ng/mL"}, {"measurement": "Tmax", "setting": "[4]; [6]", "result": 1, "unit": "h"}, {"measurement": "AUC(0-t)", "setting": "[4]; [6]", "result": 2930, "unit": "ng·h/mL"}, {"measurement": "Cmax", "setting": "[4]; [7]", "result": "687 ± 123", "unit": "ng/mL"}, {"measurement": "Tmax", "setting": "[4]; [7]", "result": 2, "unit": "h"}, {"measurement": "AUC(0-t)", "setting": "[4]; [7]", "result": "3730 ± 549", "unit": "ng·h/mL"}, {"measurement": "Cmax", "setting": "[4]; [8]", "result": "1220 ± 431", "unit": "ng/mL"}, {"measurement": "Tmax", "setting": "[4]; [8]", "result": 2, "unit": "h"}, {"measurement": "AUC(0-t)", "setting": "[4]; [8]", "result": "6220 ± 3000", "unit": "ng·h/mL"}, {"measurement": "Cmax", "setting": "[4]; [9]", "result": "1060 ± 263", "unit": "ng/mL"}, {"measurement": "Tmax", "setting": "[4]; [9]", "result": 2, "unit": "h"}, {"measurement": "AUC(0-t)", "setting": "[4]; [9]", "result": "8130 ± 1490", "unit": "ng·h/mL"}, {"measurement": "Cmax", "setting": "[4]; [10]", "result": "2420 ± 670", "unit": "ng/mL"}, {"measurement": "Tmax", "setting": "[4]; [10]", "result": 2, "unit": "h"}, {"measurement": "AUC(0-t)", "setting": "[4]; [10]", "result": "17300 ± 2830", "unit": "ng·h/mL"}, {"measurement": "Cmax", "setting": "[4]; [11]", "result": "1850 ± 605", "unit": "ng/mL"}, {"measurement": "Tmax", "setting": "[4]; [11]", "result": 2, "unit": "h"}, {"measurement": "AUC(0-t)", "setting": "[4]; [11]", "result": "11200 ± 5990", "unit": "ng·h/mL"}, {"measurement": "Cmax", "setting": "[4]; [12]", "result": 746, "unit": "ng/mL"}, {"measurement": "Tmax", "setting": "[4]; [12]", "result": 2, "unit": "h"}, {"measurement": "AUC(0-t)", "setting": "[4]; [12]", "result": 3550, "unit": "ng·h/mL"}, {"measurement": "Cmax", "setting": "[4]; [13]", "result": "576 ± 145", "unit": "ng/mL"}, {"measurement": "Tmax", "setting": "[4]; [13]", "result": 2, "unit": "h"}, {"measurement": "AUC(0-t)", "setting": "[4]; [13]", "result": "3260 ± 732", "unit": "ng·h/mL"}, {"measurement": "Cmax", "setting": "[4]; [14]", "result": "1240 ± 381", "unit": "ng/mL"}, {"measurement": "Tmax", "setting": "[4]; [14]", "result": 2, "unit": "h"}, {"measurement": "AUC(0-t)", "setting": "[4]; [14]", "result": "6480 ± 1670", "unit": "ng·h/mL"}, {"measurement": "Cmax", "setting": "[4]; [15]", "result": "1470 ± 538", "unit": "ng/mL"}, {"measurement": "Tmax", "setting": "[4]; [15]", "result": 2, "unit": "h"}, {"measurement": "AUC(0-t)", "setting": "[4]; [15]", "result": "9170 ± 3810", "unit": "ng·h/mL"}, {"measurement": "Cmax", "setting": "[4]; [16]", "result": "2700 ± 769", "unit": "ng/mL"}, {"measurement": "Tmax", "setting": "[4]; [16]", "result": 2, "unit": "h"}, {"measurement": "AUC(0-t)", "setting": "[4]; [16]", "result": "16400 ± 5410", "unit": "ng·h/mL"}, {"measurement": "Cmax", "setting": "[4]; [17]", "result": "2460 ± 858", "unit": "ng/mL"}, {"measurement": "Tmax", "setting": "[4]; [17]", "result": 4, "unit": "h"}, {"measurement": "AUC(0-t)", "setting": "[4]; [17]", "result": "22900 ± 13900", "unit": "ng·h/mL"}, {"measurement": "Antitumor effect", "setting": "TMD-8 lymphoma xenograft; 5 mg/kg, 21 days (FIG. 2)", "result": 33, "unit": "%"}, {"measurement": "Antitumor effect", "setting": "TMD-8 lymphoma xenograft; 10 mg/kg, 14 days (FIG. 1)", "result": 64, "unit": "%"}, {"measurement": "Antitumor effect", "setting": "TMD-8 lymphoma xenograft; 30 mg/kg, 14 days (FIG. 1)", "result": 82, "unit": "%"}, {"measurement": "Antitumor effect", "setting": "TMD-8 lymphoma xenograft; 90 mg/kg, 14 days (FIG. 1)", "result": 93, "unit": "%"}, {"measurement": "TMD-8 tumor growth suppression", "setting": "TMD-8 lymphoma xenograft; multiple doses, p.o., 14 days (FIG. 1)", "result": "significant TMD-8 tumor growth suppressions were dose-depended"}]}]}
